Measurements as given in US20230064292A1, “METHODS OF TREATING PSMA-POSITIVE CANCER USING RADIONUCLIDE THERAPY” (priority 2020, published 2023).

What was measured:
[1] = reported value; cited from earlier work
[2] = 177Lu-PSMA-617 (7.4 GBq), Violet et al; cited from earlier work
[3] = system: PSMA-expressing PC3-PIP cells; experiment: Cellular uptake and internalization in PSMA-expressing PC3-PIP cells; type: cell-based
Description: The PSMA binding scaffold of PSMA binds irreversibly to the extracellular enzymatic domain of PSMA leading to rapid internalization by PSMA-expressing cancer cells. Tumor cell uptake of CTT1403 is ˜84% after just 2½ hours (FIG. 1), compared to less than 40% tumor cell uptake of ^177Lu-PSMA-617 (structure shown below), in PSMA-expressing PC3-PIP cells.
Given that 99% of cell bound CTT1403 is internalized, compared to just 15% of ^177Lu-PSMA-617, targeting by CTT1403 is expected to confer a significant therapeutic advantage. This greater uptake will allow treatment of smaller tumors for a longer time. Both irreversible binding and cellular internalization increases exposure of target tissue to the therapeutic agent. Greater accumulation in the target tissue will permit a lower efficacious dose and/or dosing frequency, thus reducing a patient's total clinical exposure to the radionuclide and improving the therapeutic index.

tumor = conditions: cited from earlier work
[4] = previous dosimetry studies in patients; cited from earlier work
[5] = system: bone metastases in prostate cancer; conditions: palliative treatment of bone metastases in prostate cancer; cited from earlier work
[6] = 177Lu-PSMA-617 (7.4 GBq), Violet et al

| Compound | half-life during the elimination phase [1] [h] | initial half-life during the distribution phase [1] [min] | Kidney dose, Dose Gy/GBq [2] [Gy/GBq] | Kidney dose, Mean Dose for (Gy) [2] [Gy] | cell bound agent that is internalized ([3]; PSMA-expressing PC3-PIP cells) [%] | Tumor cell uptake ([3]; after 2½ hours, PSMA-expressing PC3-PIP cells (FIG. 1)) | Tumor (PSA < 50%), Dose Gy/GBq (tumor; [6]) [Gy/GBq] | Tumor (PSA < 50%), Mean Dose for (Gy) (tumor; [6]) | Tumor (PSA ≥ 50%), Dose Gy/GBq (tumor; [6]) [Gy/GBq] | Tumor (PSA ≥ 50%), Mean Dose for (Gy) (tumor; [6]) | tumor dose delivered that is associated with efficacy (reduction of circulating PSA) (tumor; over several cycles of therapy, published studies) | potential dose limited organs [4] | average increase in survival [5] |
| --- | --- | --- | --- | --- | --- | --- | --- | --- | --- | --- | --- | --- | --- |
| O=C([O-])CN1CCN(CC(=O)[O-])CCN(CC(=O)NCC2CCC(C(=O)N[C@@H](Cc3ccc4ccccc4c3)C(=O)NCCCC[C@H](NC(=O)N[C@@H](CCC(=O)O)C(=O)O)C(=O)O)CC2)CCN(CC(=O)[O-])CC1.[177Lu+3] (stereo partly shown) [177Lu-PSMA-617] | 10.8 ± 2.5 | 9.6 ± 5.4 | 0.77 | 3.2 | 15 | less than 40% | 1.41 | 10.4 | 1.91 | 14.1 | 10-14 Gy | salivary glands, kidneys and bone marrow |  |
| [Cl][223Ra][Cl] [Radium-223 chloride] |  |  |  |  |  |  |  |  |  |  |  |  | 3-4 months |
